In patent US8962664B2, “Selective glycosidase inhibitors and uses thereof” (Simon Fraser University, priority 2006, dated 2015):

What was measured:
Assay type in all cases: in vivo, Sprague-Dawley rats
[1] = Eight-month repeat dose toxicology study in rats: hematology (CBC) and serum chemistry
Method: The toxicological effects of repeated oral administration of (3aR,5R,6S,7R,7aR)-5-(hydroxymethyl)-2-propyl-5,6,7,7a-tetrahydro-3aH-pyrano[3,2-d]thiazole-6,7-diol (NAG-Bt) to Sprague-Dawley rats over eight months was measured. All animals were obtained from Charles-River as 5-week old healthy male Sprague-Dawley rats. Animals were given one week to acclimatize and at six weeks of age the appropriate treatment was initiated. Eight animals were fed food containing 100 mg/kg/day of NAG-Bt for eight months. Eight additional animals fed with food containing no inhibitor were used as controls. […] After four months of dosing, blood and urine samples were collected from four rats in each group.

[2] = test system: tau phosphorylation levels in brain tissue; test: Decrease of rat brain tau phosphorylation levels (NAG-Bt); conditions: rats, 100 mg/kg/day in food for five days then 50 mg/kg IV, Western blot
Method: The effect of oral administration of NAG-Bt on tau phosphorylation levels in brain tissue in Sprague-Dawley rats was measured. All animals were obtained from Charles-River as 5-week old healthy male Sprague-Dawley rats. Animals were given one week to acclimatize and at six weeks of age the appropriate treatment was initiated. Four animals were fed food containing 100 mg/kg/day of NAG-Bt for five days. Four additional animals fed with food containing no inhibitor were used as controls. At the end of five days, the animals were fasted for 11 hours, then the four animals that received NAG-Bt in food were each given an intravenous tail vein injection of 50 mg/kg NAG-Bt. All animals were fasted for a further 5 hours, then they were sacrificed and brains were removed, stored, and processed as described in Example 29.
Western blotting of the samples thus obtained was carried out using the α-O-GlcNAc antibody (CTD110.6; Covance) and a-Actin antibody as described previously.^106 For Tau blotting, pS199, pS214, pS217, pS262, pS396, and pS422 (Biosource), Tau-5 (Lab Vision; a non-PTM dependent tau antibody), Tau-1 (Chemicon; selective for nonphosphorylated Ser195, Ser198, Ser199, and Ser202), and pS404 (Sigma) antibodies were used according to the manufacturer's protocols. Equal amounts of homogenized brain tissue from an animal treated with and without NAG-Bt were separated by SDS-PAGE followed by probing with each of the primary antibodies and an appropriate secondary antibody (either an anti-mouse or anti-rabbit IgG-HRP conjugate, as appropriate). The resulting Western blots are shown in FIGS. 2A-I, and reveal decreases of brain tau phosphorylation at multiple sites following treatment with NAG-Bt; lanes labeled “+” indicate samples from animals receiving NAG-Bt, while lanes labeled “-” indicate samples from animals receiving vehicle alone.

[3] = test system: levels of O-GlcNAc modification in brain and muscle tissue; test: Dose-dependent elevation of rat brain and muscle O-GlcNAc levels (IV); conditions: rats, seven hours
Method: The effect of intravenous (IV) administration of (3aR,5R,6S,7R,7aR)-5-(hydroxymethyl)-2-propyl-5,6,7,7a-tetrahydro-3aH-pyrano[3,2-d]thiazole-6,7-diol (Compound 54; hereinafter referred to as NAG-Bt) on levels of O-GlcNAc modification in brain and muscle tissue in Sprague-Dawley rats was measured. Animals were obtained from Charles-River as 5-week old healthy male Sprague-Dawley rats. Animals were given one week to acclimatize and at six weeks of age the appropriate treatment was initiated. Eight animals were given intravenous tail vein injections of various concentrations of NAG-Bt or vehicle alone (PBS); doses of NAG-Bt included 0, 2, 5, 10, 25, 50, 100, and 250 mg/kg. Seven hours later animals were sacrificed and tissues were removed from animals as quickly as possible to minimize post-mortem delay. Tissues were immediately frozen in liquid nitrogen and stored at −80° C. until further use. Homogenization of the tissues was carried out by manual grinding followed by homogenization in cell lysis buffer (50 mM Tris, pH 8.0, 1 mM PMSF, 0.1% NP-40, 1 mM NAG-Bt) using a tissue homogenizer (IKA) at 4° C. Insoluble cell debris was removed by centrifugation at 17,900×g for 20 minutes at 4° C. and the resulting supernatant was stored at −20° C. until use.
Western blotting of the samples thus obtained was carried out using the α-O-GlcNAc antibody (CTD110.6; Covance) and the α-actin antibody as described previously.^106 Equal amounts of homogenized brain and muscle tissue from animals treated with NAG-Bt or vehicle alone were separated by SDS-PAGE followed by probing with the primary a-O-GlcNAc antibody and an anti-IgM-mouse IgG-HRP conjugate. […] FIGS. 1C and 1D are Western blots of samples loaded in the upper panels (FIGS. 1A and 1B) probed using anti-β-actin mAb clone AC-40 followed by an anti-mouse IgG-HRP conjugate, and reveal equivalent sample loading.

[4] = rat, in vivo, po, 100 mg/kg/day
[5] = IV 250 mg/kg, densitometry of Western blot

CCCC1=N[C@@H]2[C@@H](O)[C@H](O)[C@@H](CO)O[C@@H]2S1 [NAG-Bt, (3aR,5R,6S,7R,7aR)-5-(hydroxymethyl)-2-propyl-5,6,7,7a-tetrahydro-3aH-pyrano[3,2-d]thiazole-6,7-diol]
ALT [1, 4]: 109.3 iu/l
AST [1, 4]: 202.3 iu/l
Albumin [1, 4]: 47.8 g/L
Albumin/Globulin [1, 4]: 1.6
Alkaline phsphatase [1, 4]: 168.3 iu/l
Anion Gap [1, 4]: 29.8 mM
Bilirubin total [1, 4]: 0.0 µM
Blood Urea Nitrogen [1, 4]: 8.9 mM
Calcium [1, 4]: 2.7 mM
Carbon Dioxide [1, 4]: 17.5 mM
Chloride [1, 4]: 104.5 mM
Cholesterol [1, 4]: 2.9 mM
Creatine Phosphokinase [1, 4]: 1324.5 iu/l
Creatinine [1, 4]: 29.0 µM
Gamma gt [1, 4]: 17.5 iu/l
Globulin [1, 4]: 30.3 g/L
Glucose [1, 4]: 2.0 mM
Hematocrit [1, 4]: 0.5 l/l
Hemoglobin [1, 4]: 169.5 g/L
Lymphs % [1, 4]: 82.3%
Mean Corp Hemoglobin [1, 4]: 16.9 pg
Mean Corp Vol. [1, 4]: 53.3 fL
Mean Platelet Vol [1, 4]: 9.3 fL
Monocytes % [1, 4]: 4.3%
Nonesterified Fatty Acids [1, 4]: 1.8 mM
Osmolality [1, 4]: 292.9 mmol/kg
Phosphorus [1, 4]: 2.2 mM
Platelet cnt [1, 4]: 561.8 10e9/L
Polys % [1, 4]: 10.8%
Potassium [1, 4]: 5.9 mM
RDW [1, 4]: 17.4
Red cell cnt [1, 4]: 10.1 10^12/L
Sodium [1, 4]: 145.8 mM
Sorbitol Dehydrogenase [1, 4]: 22.3 iU/L
Total Protein [1, 4]: 78.0 g/L
Triglyceride [1, 4]: 2.7 mM
White cell cnt [1, 4]: 3.8 1e9/l
hematology (CBC), serum chemistry and urinalysis: differences between groups [1, 4]: no statistically significant differences
changes in ALT, AST, bilirubin or sorbitol dehydrogenase (liver toxicity) ([1]; rats, oral 100 mg/kg/day, four months): no changes
brain tau phosphorylation at Ser214 and Ser404 [2]: increases phosphorylation
brain tau phosphorylation at Thr231 and Ser396 [2]: essentially blocks phosphorylation
brain tau phosphorylation at the Tau-1 epitope (Ser195, Ser198, Ser199, Ser202), Ser199, Ser262, Ser396, Ser422, and Thr231 [2]: decreases in phosphorylation
O-GlcNAc levels in brain and muscle tissue ([3]; IV 0 to 250 mg/kg, Western blot): dose-dependent elevation
elevation of O-GlcNAc levels over baseline in brain tissue [3, 5]: roughly 25 fold
elevation of O-GlcNAc levels over baseline in muscle tissue [3, 5]: roughly 10 fold
minimum IV dose required for an observable effect in brain ([3]; IV, O-GlcNAc levels): roughly 5 mg/kg
